The source of these data is patent US8129399B2, “Aminopyrimidines useful as kinase inhibitors” (Vertex Pharmaceuticals Incorporated, priority 2005, dated 2012).

Holding throughout (assay type): biochemical
What all share (conditions): ATP at or close to Km

In one assay the target is Arg (Abl-2) (Homo sapiens, UniProt P42684). Description: Arg (Abl-2) inhibition screen. From the text:
(§1) Compound(s) were screened for their ability to inhibit Arg (Abl-2), FGFR1, MLK1, Tie2, and TrkA using screening methods known to one of ordinary skill in the art. All of the above enzymes were screened with ATP concentrations at or close to the Km for ATP.

For a further assay, the target named is MLK1 (Homo sapiens, UniProt P80192). Description: MLK1 inhibition screen.
Sequence of MLK1 (P80192 whole entry, species assumed): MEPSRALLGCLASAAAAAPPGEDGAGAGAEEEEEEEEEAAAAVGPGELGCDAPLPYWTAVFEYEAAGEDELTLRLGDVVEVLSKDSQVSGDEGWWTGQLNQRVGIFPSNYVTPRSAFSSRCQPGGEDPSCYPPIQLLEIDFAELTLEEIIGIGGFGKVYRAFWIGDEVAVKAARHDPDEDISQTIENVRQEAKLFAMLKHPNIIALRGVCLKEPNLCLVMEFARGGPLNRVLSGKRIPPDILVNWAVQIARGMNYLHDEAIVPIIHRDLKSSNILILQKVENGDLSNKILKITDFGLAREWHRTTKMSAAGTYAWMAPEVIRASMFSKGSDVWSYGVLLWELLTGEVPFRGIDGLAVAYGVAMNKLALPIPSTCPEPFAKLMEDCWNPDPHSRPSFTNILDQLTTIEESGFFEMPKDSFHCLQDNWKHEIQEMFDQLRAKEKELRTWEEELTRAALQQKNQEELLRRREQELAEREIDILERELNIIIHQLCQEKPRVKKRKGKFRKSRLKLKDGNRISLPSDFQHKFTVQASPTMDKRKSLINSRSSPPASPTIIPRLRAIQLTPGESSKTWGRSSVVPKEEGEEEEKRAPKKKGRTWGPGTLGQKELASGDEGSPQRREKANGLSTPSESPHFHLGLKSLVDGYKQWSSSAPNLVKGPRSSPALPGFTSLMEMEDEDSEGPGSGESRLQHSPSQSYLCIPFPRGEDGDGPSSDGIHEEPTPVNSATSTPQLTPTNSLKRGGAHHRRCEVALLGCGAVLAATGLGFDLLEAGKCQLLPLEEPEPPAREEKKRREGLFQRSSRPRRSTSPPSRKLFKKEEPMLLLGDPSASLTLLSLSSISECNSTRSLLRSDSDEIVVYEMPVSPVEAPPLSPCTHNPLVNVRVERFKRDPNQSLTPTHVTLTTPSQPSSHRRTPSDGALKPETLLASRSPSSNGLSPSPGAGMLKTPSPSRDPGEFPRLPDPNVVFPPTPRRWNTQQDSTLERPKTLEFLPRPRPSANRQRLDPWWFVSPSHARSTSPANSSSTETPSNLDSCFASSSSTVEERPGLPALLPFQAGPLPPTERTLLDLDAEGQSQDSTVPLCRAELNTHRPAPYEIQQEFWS
Text: as §1

A further assay deals with TrkA (Homo sapiens, UniProt P04629). Description: TrkA inhibition screen.
Sequence of TrkA (P04629 33-796, species assumed): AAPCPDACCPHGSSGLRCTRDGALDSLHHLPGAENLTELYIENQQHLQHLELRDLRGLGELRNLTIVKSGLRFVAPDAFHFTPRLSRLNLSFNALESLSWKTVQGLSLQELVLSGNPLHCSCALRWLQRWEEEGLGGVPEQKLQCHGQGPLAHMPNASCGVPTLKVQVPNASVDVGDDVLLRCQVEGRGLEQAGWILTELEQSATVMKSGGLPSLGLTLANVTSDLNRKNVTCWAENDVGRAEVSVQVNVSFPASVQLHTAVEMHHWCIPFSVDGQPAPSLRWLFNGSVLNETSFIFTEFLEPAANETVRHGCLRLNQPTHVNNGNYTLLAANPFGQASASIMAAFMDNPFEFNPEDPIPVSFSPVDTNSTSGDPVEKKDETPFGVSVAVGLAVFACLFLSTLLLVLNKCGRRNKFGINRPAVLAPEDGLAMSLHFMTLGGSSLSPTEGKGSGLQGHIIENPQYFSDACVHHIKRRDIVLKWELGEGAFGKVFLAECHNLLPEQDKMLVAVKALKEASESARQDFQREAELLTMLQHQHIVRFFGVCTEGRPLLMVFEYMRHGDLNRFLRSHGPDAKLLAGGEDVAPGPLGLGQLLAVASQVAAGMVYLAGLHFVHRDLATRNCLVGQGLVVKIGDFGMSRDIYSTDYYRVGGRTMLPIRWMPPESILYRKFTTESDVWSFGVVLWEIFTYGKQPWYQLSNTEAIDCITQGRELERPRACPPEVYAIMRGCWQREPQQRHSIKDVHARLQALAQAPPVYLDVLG
Text: as §1

In another assay the target is Tie2 (Homo sapiens, UniProt Q02763). Description: Tie2 inhibition screen.
Sequence of Tie2 (Q02763 23-1124, species assumed): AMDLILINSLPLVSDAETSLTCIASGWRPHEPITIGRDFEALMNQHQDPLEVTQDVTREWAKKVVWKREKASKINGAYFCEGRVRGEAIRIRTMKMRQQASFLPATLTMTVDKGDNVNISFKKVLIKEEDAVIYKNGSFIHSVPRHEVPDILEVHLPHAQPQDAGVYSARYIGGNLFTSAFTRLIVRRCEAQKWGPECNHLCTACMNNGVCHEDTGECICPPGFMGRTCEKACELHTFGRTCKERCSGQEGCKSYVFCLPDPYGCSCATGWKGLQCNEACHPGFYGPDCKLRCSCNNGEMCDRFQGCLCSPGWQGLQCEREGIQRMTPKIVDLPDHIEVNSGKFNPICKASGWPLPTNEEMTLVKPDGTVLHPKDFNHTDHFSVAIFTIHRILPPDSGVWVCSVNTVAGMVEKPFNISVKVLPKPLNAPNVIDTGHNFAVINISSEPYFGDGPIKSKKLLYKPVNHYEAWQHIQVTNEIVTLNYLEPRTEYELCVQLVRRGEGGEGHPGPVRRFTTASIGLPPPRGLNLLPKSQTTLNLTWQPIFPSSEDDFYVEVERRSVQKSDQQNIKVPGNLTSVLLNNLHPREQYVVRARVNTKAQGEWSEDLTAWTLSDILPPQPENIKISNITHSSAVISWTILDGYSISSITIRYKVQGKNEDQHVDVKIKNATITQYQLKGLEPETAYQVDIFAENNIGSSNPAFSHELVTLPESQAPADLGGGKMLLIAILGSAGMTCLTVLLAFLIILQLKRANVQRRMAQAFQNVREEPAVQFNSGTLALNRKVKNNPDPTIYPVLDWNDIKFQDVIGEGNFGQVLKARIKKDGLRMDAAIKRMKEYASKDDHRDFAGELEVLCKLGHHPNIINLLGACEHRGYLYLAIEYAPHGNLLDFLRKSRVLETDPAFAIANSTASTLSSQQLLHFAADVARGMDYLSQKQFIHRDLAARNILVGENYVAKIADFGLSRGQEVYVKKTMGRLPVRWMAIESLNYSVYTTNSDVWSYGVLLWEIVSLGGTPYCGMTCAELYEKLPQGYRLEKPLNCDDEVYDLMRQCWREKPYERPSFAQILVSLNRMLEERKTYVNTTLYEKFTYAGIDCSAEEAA
Text: as §1

The mark [1] stands for this setting: Table 6, introduced as Ki values.

Sequence of Arg (Abl-2) (P42684 whole entry, species assumed): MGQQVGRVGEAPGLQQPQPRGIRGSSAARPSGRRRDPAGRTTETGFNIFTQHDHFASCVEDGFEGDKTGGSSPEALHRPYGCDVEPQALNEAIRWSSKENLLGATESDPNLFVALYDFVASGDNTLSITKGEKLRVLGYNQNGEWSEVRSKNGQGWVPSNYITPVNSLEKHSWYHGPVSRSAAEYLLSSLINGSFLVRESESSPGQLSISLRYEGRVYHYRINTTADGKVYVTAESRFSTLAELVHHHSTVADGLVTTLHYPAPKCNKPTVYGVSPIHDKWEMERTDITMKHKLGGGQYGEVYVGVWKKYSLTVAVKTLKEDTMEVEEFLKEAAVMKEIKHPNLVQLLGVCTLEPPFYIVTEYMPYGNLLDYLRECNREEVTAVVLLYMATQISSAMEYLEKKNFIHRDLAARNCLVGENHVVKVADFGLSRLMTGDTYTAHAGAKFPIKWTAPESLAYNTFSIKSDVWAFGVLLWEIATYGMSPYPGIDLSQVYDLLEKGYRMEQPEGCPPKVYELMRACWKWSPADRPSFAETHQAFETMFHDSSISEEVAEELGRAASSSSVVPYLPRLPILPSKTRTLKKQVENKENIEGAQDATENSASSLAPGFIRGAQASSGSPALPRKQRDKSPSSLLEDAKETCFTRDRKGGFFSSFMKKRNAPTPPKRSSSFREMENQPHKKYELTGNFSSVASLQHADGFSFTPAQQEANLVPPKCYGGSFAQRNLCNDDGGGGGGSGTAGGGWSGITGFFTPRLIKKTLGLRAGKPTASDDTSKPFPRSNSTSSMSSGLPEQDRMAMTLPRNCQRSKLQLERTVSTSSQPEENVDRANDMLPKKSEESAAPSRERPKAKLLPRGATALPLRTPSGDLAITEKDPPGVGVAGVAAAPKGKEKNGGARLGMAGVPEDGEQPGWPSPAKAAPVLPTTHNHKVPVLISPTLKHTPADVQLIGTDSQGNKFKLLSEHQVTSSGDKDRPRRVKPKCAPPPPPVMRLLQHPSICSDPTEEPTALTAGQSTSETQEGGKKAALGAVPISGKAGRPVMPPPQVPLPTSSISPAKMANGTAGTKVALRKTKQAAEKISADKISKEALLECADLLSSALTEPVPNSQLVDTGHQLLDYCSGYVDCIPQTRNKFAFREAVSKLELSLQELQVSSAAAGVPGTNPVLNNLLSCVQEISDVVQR

`Cc1cc(Nc2cc(N3CC(F)(C4CC4)C3)nc(Sc3ccc(NC(=O)CC4CC4)cc3)n2)[nH]n1` [Compound I-19] came in with an IC50 against Arg (Abl-2) (Table 5) of 130 nM.

As to `Cc1cc(Nc2cc(N3CC(F)(C4CC4)C3)nc(Sc3ccc(NC(=O)CC(F)(F)F)cc3)n2)[nH]n1` [Compound I-14, N-(4-(4-(3-methyl-1H-pyrazol-5-ylamino)-6-(3-cyclopropyl-3-fluoroazetidin-1-yl)pyrimidin-2-ylthio)phenyl)-3,3,3-trifluoropropanamide], the IC50 against MLK1 (Table 5) was determined as 27 nM; against MLK1 (setting [1]), 14 nM; against TrkA (Table 5), 18 nM; at TrkA (setting [1]) it was 5 nM; against Arg (Abl-2) (Table 5), 14 nM; at Arg (Abl-2) (setting [1]), 3.3 nM. Further, the figures for the IC50 against Tie2 (Table 5) and on Tie2 (setting [1]) were 89 nM and 47 nM, respectively.

In turn, `Cc1cc(Nc2cc(N3CC(F)(C4CC4)C3)nc(Sc3ccc(NC(=O)C4CC4)cc3F)n2)n[nH]1` [Compound I-18] displayed a half-inhibitory concentration (IC50) against Arg (Abl-2) (Table 5) of 53 nM.
